According to patent US20050142065A1, “Screening method” (priority 2002, published 2005):
Where a name gives a salt, the structure may show the parent alone.

Assays:
[1] = test system: Wistar fatty rats; test: Glycated hemoglobin value in Wistar fatty rats given the compound in powder diet; assay type: in vivo, rat; settings: for decrease in the glycated hemoglobin value, corrected for control group: minus decrease in control a group; for decrease in glycated hemoglobin value (before minus after administration): male Wistar fatty rats
Description: In this Experimental Example, the blood of the rats were taken in a microtube finally containing 0.01M EDTA as an anticoagulant agent, for the measurement of blood glucose level and glycated hemoglobin value. The glycated hemoglobin value was measured by high performance liquid chromatograph (HLC-723GhbVA1c2.2 (product name, manufactured by Tosoh Corporation)) using an aminophenyl boronate affinity column and an absorbance (415 nm) detection method. For the mobile phase, eluents A, B (manufactured by Tosoh Corporation) were used, and the conditions set for chromatography, such as column temperature, flow rate and the like, followed the standard conditions set for this chromatography. […] The glycated hemoglobin value was measured at 4 and 5 weeks after the start of the experiment.

[2] = test system: Diabetes mellitus patients; test: Hemoglobin A1c value in diabetes mellitus patients after oral administration; assay type: in vivo, human; settings: 30 mg daily dose
Description: Diabetes mellitus patients (134 patients, age 57.6±11.5 years old, fasting blood glucose level 183.2±35.2 mg/dl, hemoglobin A1c value 9.27±1.60%) were divided into 2 groups.

CCc1ccc(CCOc2ccc(CC3SC(=O)NC3=O)cc2)nc1 (centres unmarked) [pioglitazone hydrochloride]
decrease in the glycated hemoglobin value, corrected for control group ([1]; b group, 0.8 mg/kg body weight daily in diet, 4 weeks): 1.1%
decrease in the glycated hemoglobin value, corrected for control group ([1]; b group, 0.8 mg/kg body weight daily in diet, 5 weeks): 1.3%
decrease in glycated hemoglobin value (before minus after administration) ([1]; b group, 0.8 mg/kg body weight daily in diet, 4 weeks after start of administration): 1.4%
decrease in glycated hemoglobin value (before minus after administration) ([1]; b group, 0.8 mg/kg body weight daily in diet, 5 weeks after start of administration): 1.9%
decrease in the glycated hemoglobin value, corrected for control group ([1]; c group, 2.4 mg/kg body weight daily in diet, 4 weeks): 2.5%
decrease in the glycated hemoglobin value, corrected for control group ([1]; c group, 2.4 mg/kg body weight daily in diet, 5 weeks): 2.7%
decrease in glycated hemoglobin value (before minus after administration) ([1]; c group, 2.4 mg/kg body weight daily in diet, 4 weeks after start of administration): 2.8%
decrease in glycated hemoglobin value (before minus after administration) ([1]; c group, 2.4 mg/kg body weight daily in diet, 5 weeks after start of administration): 3.3%
decrease in the hemoglobin A1c value ([2]; 8 weeks after start of administration): 0.70%
decrease in hemoglobin A1c value, corrected for placebo group ([2]; 8 weeks, minus decrease in placebo group): 0.68%
decrease in the hemoglobin A1c value ([2]; 12 weeks after start of administration): 1.08%
